Experimental data from patent publication US20090031435A1, “SMA Therapy and Cell Based Assay” (priority 2002, published 2009).

Columns and labels:
[1] = test system: SMN2-luciferase reporter construct; assay: SMN2-luciferase splicing reporter luminescence assay in C33A cells; format: cell-based, human; settings: for SMN2 luminescence/SMN1 luminescence: highest point of the curve of increase in SMN2-luciferase luminescence minus increase in SMN1-luciferase luminescence (treated/control), dilution series max 10 uM; for luminescence from the SMN2-luciferase reporter construct: screen at 10 μM, ~48 hr
Experimental: (§1) In a screen to identify compounds capable of enhancing the inclusion of exon 7 in SMN2 mRNA, cells of the human cervical carcinoma cell line C33A (ATCC#HTB-31) were stably transformed with an SMN fragment/luciferase reporter gene construct that incorporated exons 6-8 of SMN1 or SMN2 for use in a high-throughput screening assay. These cells were cultured in Dulbecco's Modified Eagle's Medium (DMEM) with 10% Fetal Bovine Serum (Sigma F 2442), 50 units/mL penicillin 50 μg/mL streptomycin sulfate and 400 mg/L G418 (i.e. Geneticin, Gibco, cat. No. 11811-031). The assay medium used to perform the luciferase assay was identical to the growth medium except the G418 selection agent was omitted. To perform the luciferase assay, a single reagent (25 mM glycylglycine, 15 mM magnesium sulfate, 4 mM EGTA, adjusted to pH 7.85, to which is added 10 μM D-luciferin (Sigma L9504), 10 mM dithiothreitol (DTT, Roche Molecular Biochemicals 100034), 2 mM adenosine 5′-triphosphate (ATP, Sigma A7699), 50 μM CoenzymeA, sodium salt (Sigma C 3144) and 1.5% Triton X-100) was used to lyse the cells and to initiate the luciferase reaction.
(§2) Using this cell-based luminescence assay, a screen was performed to identify compounds that modulate SMN splicing. Stably transfected C33A cells (˜35-40 M cells/flask) were cultured, then removed from T-175 culture flasks with 3 mL trypsin, and quenched with 7 mL assay medium. The cells were spun down and re-suspended in assay medium to a concentration of ˜200,000 cells/mL. Cells were immediately seeded in 384-well assay plates (Nalge Nunc white plates, #164610) 57 μL/well for a cell density of 11,000 cells/well. Compounds from a library obtained from the National Institute of Neurological Disorders and Stroke (NINDS) were added to the cells to a final concentration of 10 μM (diluted with assay medium by 1000× from the 10 mM stock solution in DMSO). The cells were incubated with the test compounds at 37° C. for ˜48 hr. A Zymark Sciclone ALH was used for cell seeding and compound addition. After incubation, the assay plates were cooled to room temperature for ˜10-60 minutes. The medium and compounds were aspirated from the wells, followed by 6 rinse/aspirate cycles with a PBS solution. 53 μL of the luciferase assay reagent was added and the plate was immediately transferred to a luminescence plate reader. The plate was shaken for 30 minutes prior to reading. The plate processing steps were performed on an integrated Packard Minitrak/Sidetrak platereader.
(§3) To analyze the data, the dark count background was first subtracted from all luminescence readings. The signal from each compound treated well was divided by the average of 48 control wells on the same 384-well plate. Each compound library plate was tested in triplicate with each of the two cell lines, and the entire assay was repeated on two separate occasions, yielding six readings for each compound for each cell line. The highest and lowest of the six normalized readings were dropped and the remaining four readings averaged. These average values of compound-treated luminescence versus control luminescence are denoted “Xnorm(y)”, where X indicates the cell line, SMN1-luciferase or SMN2-luciferase, and y represents the compound. The difference of [SMN2norm(y)−SMN1norm(y)] measures the selective change in SMN2-luciferase expression versus change in SMN1 luciferase production upon treatment with compound y. This is the final score that is output.
(§4) These dilutions were created with a Zymark Sciclone ALH Z-8. Once created, the assay was performed as described for the screening process. Concentrations required to achieve 50% of the maximally achievable effect for each compound (“EC50”) were calculated using Xlfit (IDBS).

SMN1-luciferase control = SMN1-luciferase control splicing reporter luminescence assay in C33A cells; format: cell-based, human
Experimental: as §1, §2, §3, §4

| Compound | Effect on splicing of SMN2-luciferase in C33A cells [1] | Effect on splicing of SMN1-luciferase control in C33A cells (SMN1-luciferase control) | SMN2 luminescence/SMN1 luminescence [1] | luminescence from the SMN2-luciferase reporter construct [1] |
| --- | --- | --- | --- | --- |
| COc1ccc2c(c1)c(CC(=O)O)c(C)n2C(=O)c1ccc(Cl)cc1 [1-(4-Chlorobenzoyl)-5-methoxy-2-methyl-3-indoleacetic acid] | None | None |  |  |
| CN1C(=O)c2ccc(-c3ccccc3)cc2C1(O)C(C)(C)C (stereo not drawn) [1-tert-butyl-1-hydroxy-2-methyl-6-phenyl-3-isoindolinone] | None |  |  |  |
| CC(O)c1ccc(N2Cc3ccccc3C2=O)cc1 (stereo not drawn) [1H-isoindol-1-one, 2,3-dihydro-2-[4-91-hydroxyethyl)phenyl]] | Increased | Increased |  |  |
| O=C1c2ccccc2CN1c1ccccc1 [1H-isoindol-1-one, 2,3-dihydro-2-phenyl] | None | None |  |  |
| O=C1NCc2ccccc21 [1H-isoindol-1-one, 2,3-dihydro-] | None | None |  |  |
| O=C(O)CCC(C(=O)O)N1Cc2ccccc2C1=O (stereo not drawn) [2-Phthalimidino-glutaric acid] | None | None |  |  |
| O=C(O)C(Cc1ccccc1)N1Cc2ccccc2C1=O (stereo not drawn) [2H-isoindol-2-acetic acid, 1,3-dihydro-1-oxo-alpha-(phenylmethyl)- . . .] | None | None |  |  |
| O=C(O)CCCN1C(=O)c2ccccc2C1=O [2H-isoindol-2-butanoic, 1,3-dihydro-1,3-dioxo] | None | None |  |  |
| Cc1ccc(C(CC(=O)O)N2Cc3ccccc3C2=O)cc1 (stereo not drawn) [2H-isoindol-2-propanoic acid, 1,3-dihydro-beta-(4-methylphenyl)-1-oxo] | None | None |  |  |
| CCC(CC)(CC)C1(O)c2ccccc2C(=O)N1C (stereo not drawn) [3-(1,1-diethylpropyl)-3-hydroxy-2-methyl-1-isoindolinone] | None |  |  |  |
| CN1C(=O)c2ccccc2C1(O)C(C)(c1ccccc1)c1ccccc1 (stereo not drawn) [3-(1,1-diphenylethyl)-3-hydroxy-2-methyl-1-isoindolinone] | None |  |  |  |
| Cc1ccc(N2C(=O)c3ccccc3C2C(=O)c2ccc(O)cc2O)cc1 (stereo not drawn) [3-(2,4-hydroxybenzoyl)-2-(4-methylphenyl)-1-isoindolinone] | None |  |  |  |
| Cc1ccc(N2C(=O)c3ccccc3C2C(=O)c2cc(O)ccc2O)cc1 (stereo not drawn) [3-(2,5-hydroxybenzoyl)-2-(4-methylphenyl)-1-isoindolinone] | None |  |  |  |
| Cc1ccc(N2C(=O)c3ccccc3C2C(=O)c2cc(C)ccc2O)cc1 (stereo not drawn) [3-(2-hydroxy-5-methylbenzoyl)-2-(4-methylphenyl)-1-isoindolinone] | None |  |  |  |
| O=C1c2ccccc2C(O)(c2ccc(Cl)cc2)N1OC1CCCCO1 (stereo not drawn) [3-(4-chlorophenyl)-3-hydroxy-2-(tetrahydropyran-2-yloxy)-1-isoindolinone] | None |  |  |  |
| CC[C@@]1(O)C(=O)OCc2c1cc1n(c2=O)Cc2cc3ccccc3nc2-1 [Camptothecin, camptothecin] |  |  | 0.4 | increased luminescence |
| CO[C@@]1(NC(=O)Cc2cccs2)C(=O)N2C(C(=O)O)=C(COC(N)=O)CS[C@@H]21 [Cefoxitin sodium, cefoxitin sodium] |  |  | 0.3 | increased luminescence |
| O=C1C=C2C(=CCOC2O)O1 (stereo not drawn) [Patulin, patulin] |  |  | 0.7 | increased luminescence |
| [O-][n+]1ccccc1[S-].[O-][n+]1ccccc1[S-].[Zn+2] [Pyrithione zinc, pyrithione zinc] |  |  | 1.0 | increased luminescence |
| CC(=O)Nc1ccc(O)cc1 [acetominophen] |  |  |  | None of these compounds resulted in increased luminescence |
| NC12CC3CC(CC(C3)C1)C2 [amantadine] |  |  | 0.3 | increased luminescence |
| CC(=O)Oc1ccccc1C(=O)O [aspirin] |  |  |  | None of these compounds resulted in increased luminescence |
| CC(C(=O)O)c1cccc(Oc2ccccc2)c1 (stereo not drawn) [fenoprofen] |  |  |  | None of these compounds resulted in increased luminescence |
| CC(C(=O)O)c1ccc(-c2ccccc2)c(F)c1 (stereo not drawn) [flurbiprofen] |  |  |  | None of these compounds resulted in increased luminescence |
| CC(C)Cc1ccc(C(C)C(=O)O)cc1 (stereo not drawn) [ibuprofen] |  |  |  | None of these compounds resulted in increased luminescence |
| CC(C(=O)O)c1cccc(C(=O)c2ccccc2)c1 (stereo not drawn) [ketoprofen] |  |  |  | None of these compounds resulted in increased luminescence |
| CC(C(=O)O)c1ccc(C(=O)c2cccs2)cc1 (stereo not drawn) [suprofen] |  |  |  | None of these compounds resulted in increased luminescence |
| Methyl 2-[4-(1,3-dioxo-2,3-dihydro-1H-isoindol-2-yl)-3-me . . . | None |  |  |  |
| Methyl 2-[4-(1,3-dioxo-2,3-dihydro-1H-isoindol-2-yl)phenyl . . . | None |  |  |  |
